Experiments:
Arsb^- mice = assay: Granule accumulation in leukocytes (May-Grunwald-Giemsa blood smears); assay type: in vivo; details: early disease treatment, 6 months, high dose (4.5 g/kg diet)
Protocol: MPS VI model nonsense mutation Arsb^m1J homozygous mice (referred to as Arsb^- throughout the manuscript) and WT littermates were obtained from internal breeding of stock mice derived from The Jackson Laboratory strain No: 005598 (C57BL/6J-Arsb^m1J/GrsrJ). Genotyping and Arsb^m1J mutation identification were performed according to the protocol provided by The Jackson Laboratory. Each study group contained mix of male and female: 6 animals in disease progression studies and between 8 and 12 animals in odiparcil treatment studies.
Housing conditions. The animals were housed in groups of 3–10 (for mice) or 2 (for rats) in polypropylene cages (floor area = 1032 cm^2) under standard conditions: room temperature (22 ± 2°C), hygrometry (55 ± 10%), light/dark cycle (12h/12h), air replacement (15–20 volumes/hour), water and food ad libitum. Mice were allowed to habituate for at least 5 days prior to experimentation. Mice were numbered by marking their tail using indelible markers. […]
Quantification of the accumulation of granules in leukocytes was done after May-Grunwald–Giemsa staining of blood smears and microscopic examination. […] Only blood smears from WT chow diet, Arsb^- chow diet and Arsb^- treated with high dose of odiparcil (4.5 g/kg diet) were analyzed. […]

[1] = system: Primary skin fibroblasts from MPS VI patients GM00538 and GM02572; assay: Intracellular chondroitin sulphate ([CS-56] immunofluorescence) in MPS VI patient skin fibroblasts; assay type: cell-based, human; details: 72 h
Protocol: Primary skin fibroblasts from MPS VI patients GM00538 and GM02572 were obtained from the NIGMS Human Genetic Cell Repository at the Coriell Institute for Medical Research. Cell culturing was done according to the conditions provided by the Coriell Institute. For evaluation of the effect of odiparcil, cells were seeded in 96 well imaging plates (Falcon Cat N 353219) and two types of treatment were evaluated: i) prophylactic conditions—cells were treated with odiparcil before reaching confluence, 24 hours after plating; and ii) curative conditions—cells were treated with odiparcil after reaching confluence (10 days culturing). Cells were treated by odiparcil added to the culture media. This was done by replacing the initial culture media by media containing 0.1% DMSO with or without odiparcil (at 0.01, 0.03, 0.1, 0.3, 1, 3 and 10 μM). For treatment, the cells were incubated for 72 hours at 37°C, 5% CO2. All experimental conditions were performed in triplicate, i.e., 3 wells/test condition.
After odiparcil treatment as described above, culture media were removed to be used for dimethylmethylene blue (DMMB) assay and the cells were fixed in PFA 4%. […]
For statistical analyses, commercial software (GraphPad Prism 5) was used. EC50 were calculated using the build in function Nonlinear fit for “log (inhibitor) vs. response—Variable slope (four parameters)”. […]

Cc1cc(=O)oc2cc(O[C@@H]3SC[C@@H](O)[C@H](O)[C@H]3O)ccc12 [Odiparcil, 4-methyl-7-(5-thio-β-D-xylopyranosyloxy)-2 H-chromen-2-one]
Leukocytes with high granules accumulation (Arsb^- mice): reduced number of leukocytes with high granules accumulation
Effect on intracellular pool of CS ([1]; 10 μM odiparcil): almost completely eliminated intracellular pool of CS
EC50 ([1]; Homo sapiens, Skin fibroblast, growing and confluent cell culture conditions, read-out: EC50 for the reduction of intracellular CS levels): ~1000 nM

From PMC7228089, “Odiparcil, a potential glycosaminoglycans clearance therapy in mucopolysaccharidosis VI—Evidence from in vitro and in vivo models” (PLoS ONE, 2020)
